Assay results reported in patent publication US5112863A, “Antipsychotic drug” (Nippon Oil & Fats Co., Ltd., priority 1989, dated 1992).

How the values were obtained:
Wistar rats = assay: Antipsychotic action test: phencyclidine-induced locomotor activity and stereotypy (method of Sturgen et al.); format: in vivo; details: for Locomotor activity score / Stereotypy score: 10 min before phencyclidine 10 mg/kg i.p., 30 minutes, grades 0-5; for Dose dependence of locomotor activity and stereotypy score: 30 minutes after pretreatment and dosage of phencyclidine; for Control of locomotor activity and stereotypy score: group dosed 100 mg/kg; for Statistical significance of lowering of locomotor activity and stereotypy score: group dosed more than 50 mg/kg, P<0.01; for Effect on locomotor activity and stereotypy score compared with NMD-Ser and NMD-Ala: phencyclidine-dosed rats, dose not stated
Description: (§1) Method: the action of antipsychotic was estimated by a method of Sturgen et al. (Eur. J. Pharmacol 76, 37-53, 1981). Namely, medicines suspended in 0.1% Tween 80 were dosed in the abdomen of Wistar rats (Weight: 200-250 g, 6 rats/group). After ten minutes, phencyclidine dissolved in physiological saline (10 mg/kg) was dosed intraperitoneally. After ten minutes, locomotor activity and stereotypy score were estimated at intervals of 20 minutes by 6 grades.
1. Sometimes, movement within localized area of cage.
2. Movement over a small area of cage, intermittent activity emitted at a low-moderate rate.
3. Movement over a small area of cage, activity emitted continuously and at a moderate-rapid rate.
4. Movement over a large area of cage, activety is intermittent and emitted at a low-moderate rate.
5. Movement over a large area of cage, activety is emitted continuously and at a moderate-rapid rate.
1. Locomotor activity, sniffing and grooming more frequent than observed for control.
2. Higher frequency of sniffing, rearing or turning than in 1.
3. Moderate rate and intermittent sniffing, rearing, turning or backpedaling.
4. Rapid rate and continuous turning, backpedaling, sniffing.
5. Dyokinetic extension and flexion of limbs, head and neck.

GABA system = details: via a GABA system; Japanese Patent Publications; Biochemical Pharmacol., 32, 2751-2755, 1983; cited from earlier work
[1] = background statement; cited from earlier work
glycine binding site = assay: Intracranial administration with 7-chlorokynurenic acid, phencyclidine-induced locomotor activity and stereotypy; format: in vivo, rats; details: 200 mg/kg with 7-chlorokynurenic acid (allosteric antagonist of glycine binding site) dosed in the brain
Description: as §1
Rats were anesthetized with pentobarbital (40 mg/kg, intruperitoneally) and mounted on a stereotaxic frame. For the intracranical administration of 7-chlorokynurenicocid, the guide cannulae were fixed to the skull. Beginning 5-7 days after surgery, bilateral intracranial injections were performed in the non-anesthetized rats with cannulae attached by poly ethylene tubes to two 10 μl Hamilton syringes. The injection site was A.P. -0.8 (anterior to bregma), V. +2.0, L.±1.5 according to the atlas of Paxinos and Watson (1982). The medicine 5 μl was injected in four minutes a minute after inserting the needle. After the injection the injection needle was kept in the brain for five minutes and removed. After ten minutes from the beginning of the injection, phencyclidine was dosed intraperitoneally.

[2] = dosed in a living body; background statement; cited from earlier work

CCCCCCCCCCCCCC(=O)N[C@H](C)C(=O)O [NMD-Ala, N-myristoyl-D-alanine]
Locomotor activity score (Wistar rats; 1 mg/kg i.p.): 2.8 ± 0.2 | Stereotypy score (Wistar rats; 1 mg/kg i.p.): 3.0 ± 0.4 | Locomotor activity score (Wistar rats; 10 mg/kg i.p.): 2.4 ± 0.4 | Stereotypy score (Wistar rats; 10 mg/kg i.p.): 2.4 ± 0.2 | Locomotor activity score (Wistar rats; 50 mg/kg i.p., P < 0.01): 2.2 ± 0.4 | Stereotypy score (Wistar rats; 50 mg/kg i.p., P < 0.01): 2.0 ± 0.3 | Locomotor activity score (Wistar rats; 100 mg/kg i.p., P < 0.01): 0.7 ± 0.3 | Stereotypy score (Wistar rats; 100 mg/kg i.p., P < 0.01): 0.8 ± 0.3 | Locomotor activity score (Wistar rats; 200 mg/kg i.p., P < 0.01): 1.5 ± 0.3 | Stereotypy score (Wistar rats; 200 mg/kg i.p., P < 0.01): 1.3 ± 0.4 | Dose dependence of locomotor activity and stereotypy score (Wistar rats): the scores lessen with the decrease of the dose | Control of locomotor activity and stereotypy score (Wistar rats): nearly controlled | Statistical significance of lowering of locomotor activity and stereotypy score (Wistar rats): statistical significant difference (P<0.01) is found

CCCCC(=O)NCC(=O)O [2-pentanoyl amino acetic acid]
Anticonvulsant functions for convulsion induced with bicuculline (GABA system): anticonvulsant functions

CCCCC(=O)N[C@H](CO)C(=O)O [N-pentanoyl-D-serine]
Effect on locomotor activity and stereotypy score compared with NMD-Ser and NMD-Ala (Wistar rats): the same effect is observed

CCCCCCCC/C=C\CCCCCCCC(=O)N[C@H](CO)C(=O)O [N-oleoyl-D-serine]
Effect on locomotor activity and stereotypy score compared with NMD-Ser and NMD-Ala (Wistar rats): the same effect is observed

CN(C)CCCN1c2ccccc2Sc2ccc(Cl)cc21 [chlorpromazine]
Side effect [1]: unsatisfactorily side effect, for example, myogelosis, mouth dry, sleepiness and constipation

CCCCCCCCCCCCCC(=O)N[C@H](CO)C(=O)O [NMD-Ser, N-myristoyl-D-serine]
Locomotor activity and stereotypy score observed at a dose of N-myristoyl-D-serine alone, when dosed with 7-chlorokynurenic acid (glycine binding site): are not observed | Locomotor activity score (Wistar rats; 1 mg/kg i.p.): 3.7 ± 0.2 | Stereotypy score (Wistar rats; 1 mg/kg i.p.): 3.2 ± 0.3 | Locomotor activity score (Wistar rats; 10 mg/kg i.p.): 3.3 ± 0.2 | Stereotypy score (Wistar rats; 10 mg/kg i.p.): 3.2 ± 0.3 | Locomotor activity score (Wistar rats; 50 mg/kg i.p., P < 0.01): 2.0 ± 0.3 | Stereotypy score (Wistar rats; 50 mg/kg i.p., P < 0.01): 1.7 ± 0.2 | Locomotor activity score (Wistar rats; 100 mg/kg i.p., P < 0.01): 1.5 ± 0.5 | Stereotypy score (Wistar rats; 100 mg/kg i.p., P < 0.01): 1.2 ± 0.3 | Locomotor activity score (Wistar rats; 200 mg/kg i.p., P < 0.01): 1.5 ± 0.3 | Stereotypy score (Wistar rats; 200 mg/kg i.p., P < 0.01): 1.5 ± 0.2 | Dose dependence of locomotor activity and stereotypy score (Wistar rats): the scores lessen with the decrease of the dose | Control of locomotor activity and stereotypy score (Wistar rats): nearly controlled | Statistical significance of lowering of locomotor activity and stereotypy score (Wistar rats): statistical significant difference (P<0.01) is found

CCCCCNCC(N)=O [2-n-pentyl amino aceto amide]
Anticonvulsant functions for convulsion induced with bicuculline (GABA system): anticonvulsant functions

NCC(=O)O [glycine]
Passage through blood brain barrier [2]: can not pass through blood brain barrier
